For the experiment, the target named is T1, phosphodiesterase 4B1 (PDE 4B1) (Homo sapiens, UniProt Q07343).
T1 construct: gene PDE4B; PDE 4B1 (BPS Biosciences)
As to the kind of experiment: PDELight bioluminescent cAMP phosphodiesterase assay, % inhibition at […]. It counts as biochemical. Conditions: read-out: PDE 4B1 inhibition (%) ± SEM.

The structures appear in SMILES notation.

T1 sequence (Q07343 whole entry): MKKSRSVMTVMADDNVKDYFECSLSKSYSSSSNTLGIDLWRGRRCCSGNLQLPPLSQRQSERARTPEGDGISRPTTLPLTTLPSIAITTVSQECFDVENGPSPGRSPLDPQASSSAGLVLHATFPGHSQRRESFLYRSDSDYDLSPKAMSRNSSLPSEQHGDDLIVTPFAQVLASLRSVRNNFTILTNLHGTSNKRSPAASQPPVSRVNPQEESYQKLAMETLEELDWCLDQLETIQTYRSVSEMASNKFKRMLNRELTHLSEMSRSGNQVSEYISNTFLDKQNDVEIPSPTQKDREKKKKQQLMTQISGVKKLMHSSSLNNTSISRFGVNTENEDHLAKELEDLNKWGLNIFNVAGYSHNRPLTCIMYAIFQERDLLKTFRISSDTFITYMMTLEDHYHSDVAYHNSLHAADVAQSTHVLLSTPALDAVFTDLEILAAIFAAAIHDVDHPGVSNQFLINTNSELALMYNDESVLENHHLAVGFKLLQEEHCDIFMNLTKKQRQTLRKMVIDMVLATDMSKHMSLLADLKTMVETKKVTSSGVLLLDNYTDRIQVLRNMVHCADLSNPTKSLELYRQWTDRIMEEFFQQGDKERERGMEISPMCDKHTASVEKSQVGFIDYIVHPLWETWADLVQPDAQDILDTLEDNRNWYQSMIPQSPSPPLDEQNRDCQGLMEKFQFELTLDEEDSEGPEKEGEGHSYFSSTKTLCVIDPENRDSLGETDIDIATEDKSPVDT

In general, inhibition refers to the relative decrease from the control value, in per cent. On to `Nc1nc(N)nc(-c2cc(Cl)ccc2Cl)n1` [Irsogladine], for which the inhibition at 100 µM was 31 ± 0.5%.
Regarding `COc1ccc(C2CNC(=O)C2)cc1OC1CCCC1` (centres unmarked) [Rolipram], the inhibition at 50 µM was found to be 95%.

(Values after article PMC5209447, “Aryl-1,3,5-triazine ligands of histamine H4 receptor attenuate inflammatory and nociceptive response to carrageen, zymosan and lipopolysaccharide” (Inflammation Research, 2016).)
